IC50 and Ki data for nine molecules are collected here from ChEMBL document CHEMBL1909046, “DrugMatrix in vitro pharmacology data”.

Data set [1] concerns the target Platelet-activating factor receptor (Homo sapiens, UniProt P25105). Format: tissue-based. Also: in other assays of this panel Not Active means under 50% inhibition at 10 µM.
For data set [2], the target named is T1, Alpha-1D adrenergic receptor (Homo sapiens, UniProt P25100). Also: in other assays of this panel Not Active means under 50% inhibition at 10 µM.
T1 sequence (P25100 whole entry): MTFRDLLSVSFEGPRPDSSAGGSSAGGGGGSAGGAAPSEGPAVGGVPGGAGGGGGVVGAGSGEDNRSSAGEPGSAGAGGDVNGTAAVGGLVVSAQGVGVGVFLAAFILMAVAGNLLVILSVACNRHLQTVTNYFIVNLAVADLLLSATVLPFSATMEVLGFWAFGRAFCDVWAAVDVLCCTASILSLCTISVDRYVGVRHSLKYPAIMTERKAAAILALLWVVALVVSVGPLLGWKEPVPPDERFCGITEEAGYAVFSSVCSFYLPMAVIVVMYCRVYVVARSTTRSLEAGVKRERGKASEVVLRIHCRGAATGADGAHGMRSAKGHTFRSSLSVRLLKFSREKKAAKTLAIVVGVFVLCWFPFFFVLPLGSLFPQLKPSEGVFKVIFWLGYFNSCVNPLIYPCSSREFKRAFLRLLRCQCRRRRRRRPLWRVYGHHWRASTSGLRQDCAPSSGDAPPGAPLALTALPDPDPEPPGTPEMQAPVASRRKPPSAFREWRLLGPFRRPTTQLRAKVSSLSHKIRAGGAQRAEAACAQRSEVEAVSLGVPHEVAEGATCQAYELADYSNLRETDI
Type of data set: cell membranes, HEK293, Membrane. The following applies: for Ki: read-out: Ki.

In data set [3] the target is T2, Cholecystokinin receptor type A (Homo sapiens, UniProt P32238). Also: in other assays of this panel Not Active means under 50% inhibition at 10 µM.
T2 sequence (P32238 whole entry): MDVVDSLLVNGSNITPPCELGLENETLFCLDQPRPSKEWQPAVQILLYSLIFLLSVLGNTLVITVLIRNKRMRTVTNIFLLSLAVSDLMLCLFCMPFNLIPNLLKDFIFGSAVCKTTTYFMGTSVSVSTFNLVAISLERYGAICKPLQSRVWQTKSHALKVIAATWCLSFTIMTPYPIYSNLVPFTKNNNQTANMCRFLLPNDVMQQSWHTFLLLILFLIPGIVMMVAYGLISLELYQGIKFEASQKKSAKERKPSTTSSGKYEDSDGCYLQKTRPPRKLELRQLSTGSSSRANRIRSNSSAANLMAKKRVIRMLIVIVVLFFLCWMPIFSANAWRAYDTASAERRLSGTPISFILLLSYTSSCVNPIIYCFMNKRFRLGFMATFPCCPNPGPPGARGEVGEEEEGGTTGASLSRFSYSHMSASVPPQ
Format: cell membranes, Membrane. To be noted: 1321-n1.

For data set [4], the target named is Voltage-gated inwardly rectifying potassium channel KCNH2 (Homo sapiens, UniProt Q12809). To be noted: hek293. Also: in other assays of this panel Not Active means under 50% inhibition at 10 µM.
Sequence of Voltage-gated inwardly rectifying potassium channel KCNH2 (Q12809 whole entry): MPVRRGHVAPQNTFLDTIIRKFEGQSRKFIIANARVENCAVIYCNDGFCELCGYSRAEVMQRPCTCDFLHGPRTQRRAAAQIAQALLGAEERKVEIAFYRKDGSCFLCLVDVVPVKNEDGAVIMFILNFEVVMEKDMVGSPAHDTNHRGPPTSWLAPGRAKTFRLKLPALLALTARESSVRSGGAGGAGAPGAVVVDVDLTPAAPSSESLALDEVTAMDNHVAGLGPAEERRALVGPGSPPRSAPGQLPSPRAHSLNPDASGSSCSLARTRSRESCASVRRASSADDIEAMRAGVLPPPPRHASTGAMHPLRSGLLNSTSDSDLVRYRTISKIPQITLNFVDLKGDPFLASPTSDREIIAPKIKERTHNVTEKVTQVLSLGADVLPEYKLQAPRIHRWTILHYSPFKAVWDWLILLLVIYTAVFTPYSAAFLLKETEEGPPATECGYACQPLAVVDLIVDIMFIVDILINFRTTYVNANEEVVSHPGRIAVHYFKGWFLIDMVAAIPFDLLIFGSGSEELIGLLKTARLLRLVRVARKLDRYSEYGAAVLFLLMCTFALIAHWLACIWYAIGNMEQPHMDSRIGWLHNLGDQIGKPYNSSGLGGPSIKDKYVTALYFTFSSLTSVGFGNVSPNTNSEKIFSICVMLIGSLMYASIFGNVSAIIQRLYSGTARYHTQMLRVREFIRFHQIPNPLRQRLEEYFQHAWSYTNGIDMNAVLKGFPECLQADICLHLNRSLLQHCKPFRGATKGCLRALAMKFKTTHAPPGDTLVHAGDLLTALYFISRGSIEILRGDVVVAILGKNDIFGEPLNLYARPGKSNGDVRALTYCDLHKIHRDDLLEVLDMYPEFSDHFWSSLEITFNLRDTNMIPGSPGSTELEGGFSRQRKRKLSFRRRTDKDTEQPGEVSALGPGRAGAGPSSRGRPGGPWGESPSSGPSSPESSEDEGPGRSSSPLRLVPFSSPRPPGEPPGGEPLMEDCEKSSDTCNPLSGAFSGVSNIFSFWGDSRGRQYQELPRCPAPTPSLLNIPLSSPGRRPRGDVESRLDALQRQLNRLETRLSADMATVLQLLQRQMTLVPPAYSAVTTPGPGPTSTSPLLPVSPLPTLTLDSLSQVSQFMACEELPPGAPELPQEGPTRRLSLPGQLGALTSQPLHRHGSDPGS
Data set [5] deals with Histamine H2 receptor (Homo sapiens, UniProt P25021). Format: cell membranes, CHO-K1, Membrane.
Sequence of Histamine H2 receptor (P25021 whole entry): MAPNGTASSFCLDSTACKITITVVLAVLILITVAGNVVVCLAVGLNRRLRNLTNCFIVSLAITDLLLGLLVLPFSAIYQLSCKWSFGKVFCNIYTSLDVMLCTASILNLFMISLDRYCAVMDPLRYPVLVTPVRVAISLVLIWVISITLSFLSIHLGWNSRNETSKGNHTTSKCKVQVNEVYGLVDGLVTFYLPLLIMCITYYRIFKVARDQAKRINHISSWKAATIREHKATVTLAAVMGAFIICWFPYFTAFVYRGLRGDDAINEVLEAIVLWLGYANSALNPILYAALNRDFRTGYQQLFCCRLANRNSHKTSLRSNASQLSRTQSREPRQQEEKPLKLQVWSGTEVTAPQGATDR
Data set [6] addresses T3, Cytochrome P450 1A2 (Homo sapiens, UniProt P05177).
T3 sequence (P05177 whole entry): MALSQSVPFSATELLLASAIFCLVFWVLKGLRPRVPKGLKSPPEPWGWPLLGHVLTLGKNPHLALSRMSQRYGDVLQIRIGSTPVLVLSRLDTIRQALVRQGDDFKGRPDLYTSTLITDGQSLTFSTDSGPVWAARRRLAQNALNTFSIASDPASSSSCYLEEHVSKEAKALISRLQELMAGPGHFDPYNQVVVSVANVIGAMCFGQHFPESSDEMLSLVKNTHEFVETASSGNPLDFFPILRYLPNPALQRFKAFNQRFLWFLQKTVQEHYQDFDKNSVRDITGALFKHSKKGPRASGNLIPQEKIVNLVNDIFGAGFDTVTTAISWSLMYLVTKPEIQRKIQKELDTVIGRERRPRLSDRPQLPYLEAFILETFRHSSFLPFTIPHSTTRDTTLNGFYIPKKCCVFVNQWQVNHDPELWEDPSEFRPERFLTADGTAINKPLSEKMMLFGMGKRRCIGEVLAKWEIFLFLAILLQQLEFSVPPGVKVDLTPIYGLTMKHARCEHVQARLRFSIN
The following applies: bti-tn-5b1-4.

The target in data set [7] is Sodium-dependent noradrenaline transporter (Homo sapiens, UniProt P23975). Briefly: DRUGMATRIX: Norepinephrine Transporter radioligand binding (ligand: [125I] RTI-55). Type of data set: cell membranes, MDCK, Membrane. The following applies: mdck; Not Active = under 50% inhibition at 10 µM.
Sequence of Sodium-dependent noradrenaline transporter (P23975 whole entry): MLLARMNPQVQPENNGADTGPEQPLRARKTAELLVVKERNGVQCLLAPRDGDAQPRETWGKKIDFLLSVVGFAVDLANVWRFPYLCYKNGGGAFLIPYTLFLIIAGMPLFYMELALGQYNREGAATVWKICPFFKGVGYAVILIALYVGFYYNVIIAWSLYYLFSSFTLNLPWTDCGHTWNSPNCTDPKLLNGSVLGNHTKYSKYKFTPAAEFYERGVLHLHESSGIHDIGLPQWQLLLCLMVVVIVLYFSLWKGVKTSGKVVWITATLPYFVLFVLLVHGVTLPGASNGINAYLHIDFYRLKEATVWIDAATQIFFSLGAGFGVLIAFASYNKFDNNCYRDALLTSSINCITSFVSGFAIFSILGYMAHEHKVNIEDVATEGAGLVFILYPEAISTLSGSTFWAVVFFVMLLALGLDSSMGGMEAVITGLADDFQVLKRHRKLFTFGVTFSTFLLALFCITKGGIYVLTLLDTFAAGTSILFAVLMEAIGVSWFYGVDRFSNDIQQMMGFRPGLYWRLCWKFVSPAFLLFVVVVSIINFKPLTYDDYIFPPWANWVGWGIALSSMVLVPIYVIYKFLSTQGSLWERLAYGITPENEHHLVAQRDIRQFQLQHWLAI
A short description of data set [8]: DRUGMATRIX: Tumor Necrosis Factor (TNF), Non-Selective radioligand binding (ligand: [125I] TNF-alpha). Format: cell membranes, Membrane. To be noted: u-937; Not Active = under 50% inhibition at 10 µM.
A short description of data set [9]: DRUGMATRIX: Glutamate, NMDA, Agonism radioligand binding (ligand: [3H] CGP-39653). Format: cell membranes, Rattus norvegicus, Wistar, Cerebral cortex, Membrane. The following applies: Not Active = under 50% inhibition at 10 µM.
Data set [10] has as its target D(1A) dopamine receptor (Homo sapiens, UniProt P21728). Briefly: DRUGMATRIX: Dopamine D1 radioligand binding (ligand: [3H] SCH-23390). Type of data set: cell membranes, Membrane. To be noted: cho; Not Active = under 50% inhibition at 10 µM.

Structures are written as SMILES.

Sequence of Platelet-activating factor receptor (P25105 whole entry): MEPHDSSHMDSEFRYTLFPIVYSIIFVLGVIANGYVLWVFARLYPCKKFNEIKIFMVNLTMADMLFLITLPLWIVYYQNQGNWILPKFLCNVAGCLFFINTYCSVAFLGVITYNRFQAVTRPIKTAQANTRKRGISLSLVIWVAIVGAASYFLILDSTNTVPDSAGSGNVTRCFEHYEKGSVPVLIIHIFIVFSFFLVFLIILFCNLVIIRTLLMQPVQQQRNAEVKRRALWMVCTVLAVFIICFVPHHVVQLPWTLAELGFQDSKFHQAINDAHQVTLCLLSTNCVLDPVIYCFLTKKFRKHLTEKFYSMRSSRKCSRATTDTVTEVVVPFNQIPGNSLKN
Sequence of D(1A) dopamine receptor (P21728 whole entry): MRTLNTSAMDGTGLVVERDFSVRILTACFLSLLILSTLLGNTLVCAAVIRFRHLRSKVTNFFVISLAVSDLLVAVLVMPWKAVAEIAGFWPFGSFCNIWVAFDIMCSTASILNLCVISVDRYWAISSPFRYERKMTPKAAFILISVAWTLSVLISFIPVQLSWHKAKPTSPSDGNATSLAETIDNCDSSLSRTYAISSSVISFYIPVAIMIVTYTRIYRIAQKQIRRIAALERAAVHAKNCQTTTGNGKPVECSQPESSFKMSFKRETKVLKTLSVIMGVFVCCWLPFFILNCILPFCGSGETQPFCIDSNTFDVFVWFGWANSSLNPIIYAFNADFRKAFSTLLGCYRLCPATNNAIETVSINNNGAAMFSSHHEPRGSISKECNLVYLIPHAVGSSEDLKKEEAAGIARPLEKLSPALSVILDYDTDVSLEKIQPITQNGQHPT

In the case of `Clc1ccc2c(c1)C(N1CCNCC1)=Nc1ccccc1O2` [AMOXAPINE], the IC50 entry in [1] is “Not Active”; in data set [2] (read-out: IC50), 306 nM; in [3], “Not Active”; in [4] it was “Not Active”; in data set [5] (cho-k1), “Not Active”; in data set [6], “Not Active”. The Ki was 150 nM in [2], “Not Active” in data set [4] and “Not Active” in [6].
For `COc1cc2c(c(OC)c1OC)-c1ccc(OC)c(=O)cc1[C@@H](NC(C)=O)CC2` [COLCHICINE], the IC50 entry in data set [1], in data set [7], in data set [2] (hek293), in data set [3], in data set [4] and in [5] (cho-k1) was “Not Active” throughout. Also, the Ki entry in data set [4] is recorded as “Not Active”.
As to `CN1CCC(=C2c3ccccc3C=Cc3ccccc32)CC1` [CYPROHEPTADINE], the IC50 entry in data set [1] was “Not Active”; in [2] (read-out: IC50) it was 107 nM; in [3] it was “Not Active”; in data set [5] (read-out: IC50), 198 nM; in data set [6], “Not Active”. Also, the figures for the Ki in data set [2], in [5] (read-out: Ki) and in [6] were 53 nM, 195 nM and “Not Active”, respectively.
For the molecule `CC/C(=C(/CC)c1ccc(O)cc1)c1ccc(O)cc1` [DIETHYLSTILBESTROL], the IC50 result in [1] was “Not Active”; in data set [2] (read-out: IC50) it was 10800 nM; in data set [3] it was “Not Active”; in data set [4], “Not Active”; in data set [5] (cho-k1), “Not Active”; in [6], “Not Active”. Further, the Ki in data set [2] was 5320 nM; in [4] it was “Not Active”; in [6] it was “Not Active”.
Take `C=CCN1CC[C@]23c4c5ccc(O)c4O[C@H]2C(=O)CC[C@@]3(O)[C@H]1C5` [NALOXONE]: the IC50 result in [1], in data set [7], in data set [2] (hek293), in data set [3], in data set [4] and in data set [5] (cho-k1) was “Not Active” in each case. Further, in data set [4], the Ki entry is given as “Not Active”.
With `CC(C)NCC(O)COc1cccc2ccccc12` (configuration not stated) [PROPRANOLOL], the IC50 entry in data set [1], in [2] (hek293), in data set [3], in data set [4] and in data set [5] (cho-k1) was “Not Active” throughout. The Ki entry in data set [4] is “Not Active”.
Turning to `O=C(c1ccc(OCCN2CCCCC2)cc1)c1c(-c2ccc(O)cc2)sc2cc(O)ccc12` [RALOXIFENE], the IC50 result is “Not Active” in [1]; 973 nM in [2] (read-out: IC50); “Not Active” in [3]; “Not Active” in [8]; “Not Active” in [9]; “Not Active” in [4]. Further, the IC50 result in data set [5] (cho-k1) and in data set [6] was “Not Active” throughout. The Ki in [2] is 478 nM; in [8] it was “Not Active”; in data set [9], “Not Active”; in data set [4] it was “Not Active”; in data set [6] it was “Not Active”.
As for `CC(C)CC(N(C)C)C1(c2ccc(Cl)cc2)CCC1` (configuration not stated) [SIBUTRAMINE], the IC50 entry in data set [1], in data set [10], in data set [2] (hek293), in data set [3], in data set [8] and in data set [9] was “Not Active” each time. For the same molecule, the IC50 entry in data set [4], in data set [5] (cho-k1) and in [6] was “Not Active” throughout. Besides, the Ki entry in data set [8], in data set [9], in data set [4] and in [6] was “Not Active” each time.
For `CC(C)(C)c1ccc(C(O)CCCN2CCC(C(O)(c3ccccc3)c3ccccc3)CC2)cc1` (configuration not stated) [TERFENADINE], the half-inhibitory concentration (IC50) result in [1], in [2] (hek293), in data set [3], in [8], in [9] and in data set [5] (cho-k1) was “Not Active” in each case. Also, in data set [6], the IC50 result is “Not Active”. Further, the Ki result in data set [8], in [9] and in [6] was “Not Active” each time.
